Data published in US4933368A, “N-phenylbenzamide derivatives” (Godecke Aktiengesellschaft, priority 1983, dated 1990).
Entries after “also recorded” stand apart in the source; their conditions may differ.

Assays:
[1] = tested on: allogeneic skin grafts; assay: Trial II, skin graft survival test in rats (recipient Osborne Mendel, donor Lewis), vs azathioprine; format: in vivo; conditions: far smaller quantities of Substance A
Protocol: Route of Intragastric via stomach tube,
suspended in 0.8% Methocel
Volume: 0.01 ml per gram body weight and dose
Trial II/from Day -2 before grafting to Day +9
Trial II/4-8 mg/kg daily increasing over 12 days
Two allogeneic skin grafts from a donor rat are transferred to a receiving rat from an unrelated inbred strain. The panniculus carnosus attached to the graft may either be removed by dissection (suprapannicular graft) or be left on the graft (subpannicular graft). Grafting is conducted on Day 0 under light ether narcosis subsequent to shaving and cleanup of the grafting sites. The grafts are fixed on the graft receptor sites by dressing with a suitable bandage. From Day +9 a protective colar is placed on the animals, the bandage removed, and the status of the grafts daily controlled. The assessment of the graft function is conducted by means of a graduation scale, which allows for differentiation of rejection corresponding to a three-degree of severity score. The trial ends on the day when 50% of the animals of one group have rejected both grafts. The lengthening of the graft survival time in comparison to the controls is determined in days.
Recipient: Osborne Mendel .male., Donor: Lewis .male.. Two suprapannicular grafts were transferred from a donor to a recipient.

[2] = tested on: allogeneic skin grafts; assay: Skin graft survival test in rhesus monkeys; format: in vivo, rhesus monkeys (Macaca mulatta); conditions: for lengthening of the normal graft survival time: 10 mg/kg i.g. 1× daily for 10 days, vs normal survival stated as ten days
Protocol: Preparation: Freshly prepared before each
Route of Intragastric via stomach tube,
administration: suspended in 0.8% Methocel
Altogether four allogeneic skin grafts from two different donor animals are transferred crosswise to one unrelated receiving animal. At first the grafts are removed under ketamine narcosis from the shaven and cleaned stomach skin of the donor animals and freed of any fat attached. The four graft receptor sites are prepared on the shaven and cleaned back of the receiving animal under ketamine narcosis by removing suitably sized pieces of skin. Subsequent to successful hemostasis, the grafts are spread out on the graft receptor sites and sewn to the edges of the wound. The wound is covered with a suitable dressing material and this is fixed with an elastic bandage. The bandage is opened on the 5th, 7th, and 9th day after grafting and the function of the grafts examined. On the 9th day the bandage is no longer replaced. The graft function is then controlled daily until rejection has occurred.
Controls are dispensed within this trial on primates for ethical reasons. Comparisons are drawn with the normal survival of allogeneic skin grafts or historic controls, stated as ten days.

[3] = tested on: Osteosarcoma C22LR; assay: Osteosarcoma C22LR, growth retardation in mice; format: in vivo, BCBA mice; conditions: for Surviving Animals: n = 5
Protocol: (§1) Preparation: As suspension freshly prepared
(§2) before each administration
(§3) Route of Oral, suspended in 0.8%
(§4) administration: Methocel
(§5) Volume: 0.01 per gram body weight
(§6) daily for 9 days, if not
Osteosarcoma. C22LR in BCBA mice (C57B1×CBA/Rij, Fl hybrid). The tumor is subcutaneously inoculated bilaterally into the sides. It is measured at least 2×weekly in three dimensions. The terminal point is the retardation of growth. It is defined as the difference of the average time in which the volume of five to ten tumors in five treated animals reaches a given value in comparison with that of five to ten tumors in the control animals. This value was determined as four times that of the average volume at commencement of treatment.

[4] = tested on: Lewis Lung Tumor; assay: Lewis Lung Tumor, growth retardation in mice; format: in vivo, BCBA mice; conditions: for Surviving Animals: n = 5
Protocol: as §1, §2, §3, §4, §5, §6
Lewis Lung Tumor in BCBA mice. The procedure is the same as with osteosarcoma. The volume of the tumor was determined here at 800 mm^3 (=product of the diameters in three dimensions).

[5] = tested on: Electro-convulsion; assay: Maximal electroconvulsion test; format: in vivo; conditions: Mus musculus, po; i.g., mice
[6] = tested on: BN leukemia; assay: BN leukemia (CCLS test); format: in vivo, mice; conditions: for % T/C: IV PO
Description: (§7) The two types of assays used were the standard CCTM test for solid tumors and the CCLS test for leukemia.
The CCLS assay assesses the antitumor activity of a test agent by measurement of the treatment-induced increase in host lifespan. Only rapidly growing tumors that kill their respective hosts in less than 30 days are appropriate for life span assays.
Test animals are appropriate Fl hybrid mice derived for the inbred strain of tumor origin. After the required mice are randomized, they receive implants (IP, IV, IC, IM, or SC) of appropriately diluted ascites fluid or dilutions of tumor brei on Day 0. A sample from the final inocula is incubated in thioglycolate media as a check for gross contamination of the tumor material. After tumor inoculation, the test mice are rerandomized and distributed to test groups as per the specific test protocol.
(§8) Test agents are dissolved or suspended in any of several vehicles and are administered by the routes and treatment schedules specified on the test protocol. All animals are monitored for signs of acute toxicity and side effects.
Survival is checked daily for each test group. Both the number dead and the number living are counted and recorded. All dead mice are autopsied to ascertain the probably cause of death (drug or tumor). Clinical signs are observed and recorded for all test groups. Group body weights are recorded at least weekly as directed in the specific test protocol.
For most life span assays, any animal surviving more than 60 days is sacrificed and autopsied to determine the tumor burden present. It is possible that specific protocols involving unusual tumors or routes of tumor implantation will call for longer termination dates.
Td=tumor volume doubling time (days), calculated from the slope of a log-linear least square fit of the survival time vs inoculum curve for titrated inocula of tumor cells in untreated mice.
MLS=median life span, calculated by a method appropriate for grouped observations.
NOTE: Some adjustments in these calculations are made to make comparisons with the appropriate control cage more accurate. The slope of the titration curve (least squares fit) is used to calculate the Td for the tumor, but the life span increases of the treated animals are based only on the MLS of the control cage with the same initial inoculum (not on the least square approximation from the titration curve). This in theory reduces any effects from dilution, etc.
All tumor-free survivors (cures) are excluded from the calculation of MLS and cell kill values. Thus all calculated end points represent the response of the treatment failures.

[7] = tested on: HCT-8 human colon xenograft; assay: HCT-8 human colon xenograft in nude mice (CCTM test); format: in vivo
Description: Doses just under the acutely lethal dose can be given indefinitely (for more than 30 days), during which the treated animals regain their initial weight loss.
as §7
The CCTM assay assesses the antitumor activity of a test agent by measurement of the treatment-induced delay of tumor growth. Tumor growth delay is used because, unlike T/C type assays, the measured parameter is […].
Test animals are Fl hybrid mice derived from the inbred strain of tumor origin. […]
as §8
Survival is checked daily for each test group. Both the number dead and the number living are counted and recorded. […] Clinical signs are observed and recorded for all test groups. Individual body weights are recorded at least weekly as directed in the specific test protocol. Each tumor is measured with calipers as per the protocol (usually two to three times/week). […]
Td=tumor volume doubling time (days), calculated from the slope of a long-linear least squares fit of the growth curve between 63 and 1000 mg for each control tumor. […]

Question: With `Nc1ccc(C(=O)Nc2ccccc2N)cc1` [Substance A, 4-Amino-N-(2'-aminophenyl)-benzamide] as the molecule, how does the “effect compared with standard azathioprine” value [1] read?
Answer: Its value is “equally effective as the immunosuppressive standard azathioprine”.

Question: And the immunosuppressive action ([2]; rhesus monkeys, 10 mg/kg i.g., 10 mg/kg)?
Answer: Its immunosuppressive action is “distinct immunosuppressive action; also recorded: markedly clear”.

Question: And the “lengthening of the normal graft survival time” value ([2]; test animal YL)?
Answer: The value was “four to five”.

Question: And the “lengthening of the normal graft survival time” value ([2]; test animal ZE)?
Answer: The value was “six to seven”.

Question: And the “Surviving Animals” value ([3]; 1 × 240 mg/kg PO)?
Answer: Its value is 5/5.

Question: And the “Retardation in Growth of Tumor (Days)” value ([3]; 1 × 240 mg/kg PO, p = 0,001)?
Answer: The value was 3,1 Days.

Question: And the “Retardation in Growth of Tumor (Days)” value ([3]; 2 × 180 mg/kg PO)?
Answer: The value was 9,6 Days.

Question: What about the “Surviving Animals” value ([3]; 2 × 180 mg/kg PO) of the same molecule?
Answer: The value was 1/5.

Question: What about the “Retardation in Growth of Tumor (toxic death)” value (“Retardation … (toxic death)” below) ([3]; 4 × 120 mg/kg PO) of the same molecule?
Answer: The value was “toxic death”.

Question: What about the “Surviving Animals” value ([3]; 9 × 60 mg/kg IP, controls 5/5) of the same molecule?
Answer: The value was 5/5.

Question: And the “Retardation in Growth of Tumor (Days)” value ([3]; 9 × 60 mg/kg IP, p = 0,0001)?
Answer: The value was 7,8 Days.

Question: What about the assessment of activity ([3]; mouse, in vivo) of the same molecule?
Answer: Its assessment of activity is “good activity”.

Question: And the “Surviving Animals” value ([4]; 1 × 240 mg/kg PO)?
Answer: Its value is 5/5.

Question: And the “Retardation in Growth of Tumor (Days)” value ([4]; 1 × 240 mg/kg PO, p = 0,018)?
Answer: Its value is 3,1 Days.

Question: And the “Retardation … (toxic death)” value ([4]; 2 × 180 mg/kg PO)?
Answer: Its value is “toxic death”.

Question: What about the “Surviving Animals” value ([4]; 2 × 180 mg/kg PO) of the same molecule?
Answer: The value was 0/5.

Question: What about the “Retardation … (toxic death)” value ([4]; 4 × 120 mg/kg PO) of the same molecule?
Answer: Its value is “toxic death”.

Question: What about the “Surviving Animals” value ([4]; 4 × 120 mg/kg PO) of the same molecule?
Answer: Its value is 0/5.

Question: And the “Surviving Animals” value ([4]; 9 × 60 mg/kg IP, controls 5/5)?
Answer: The value was 5/5.

Question: And the “Retardation in Growth of Tumor (Days)” value ([4]; 9 × 60 mg/kg IP, p = 0,061)?
Answer: The value was 3,8 Days.

Question: And the assessment of activity ([4]; mouse, in vivo)?
Answer: The assessment of activity was “moderate activity”.

Question: And the ED50 [5]?
Answer: The ED50 was 30 mg/kg.

Question: What about the anticancer activity ([6]; BN leukemia) of the same molecule?
Answer: Its anticancer activity is “significant anticancer activity has been demonstrated and confirmed”.

Question: What about the “% T/C” value ([6]; Days 1-5, 20 mg/kg) of the same molecule?
Answer: The value was 356%.

Question: And the “% T/C” value ([6]; Days 1-5, 30 mg/kg)?
Answer: Its value is 430%.

Question: What about the “% T/C” value ([6]; Days 7-11, 14-18, 20 mg/kg) of the same molecule?
Answer: The value was 335%.

Question: What about the “% T/C” value ([6]; Days 7-11, 14-18, 21-25, 20 mg/kg) of the same molecule?
Answer: Its value is 474%.

Question: And the “% T/C” value ([6]; Days 7-11, 14-18, 21-25, 28-32, 35-39, 8 mg/kg)?
Answer: Its value is 343%.

Question: What about the anticancer activity ([7]; HCT-8 human colon tumor xenograft) of the same molecule?
Answer: Its anticancer activity is “significant anticancer activity has been demonstrated and confirmed”.

Question: And the “(T-C) tumor growth delay” value ([7]; SC PO, Days 9-24, 69 mg/kg)?
Answer: Its value is 13 days.
